{"source": "patent US5750522A", "about": "“Pyrrolo[1,2-d] [1,2,4]triazine derivatives” (American Home Products Corporation, priority 1996, dated 1998)", "key": {"[1]": {"conditions": "quaternary ammonium group; background statement; cited from earlier work"}, "ml receptors": {"test_system": "ml receptors", "conditions": "background statement; cited from earlier work"}, "ml muscarinic receptor": {"target": "ml muscarinic receptor (Homo sapiens, UniProt P11229)", "experiment": "biochemical", "assay_type": "binding"}, "[2]": {"conditions": "continuous infusion over 2 weeks used because of it; cited from earlier work"}, "[3]": {"test_system": "patients with mild to moderate Alzheimer's disease", "conditions": "cited from earlier work"}, "[4]": {"test_system": "patients with mild to moderate Alzheimer's disease", "conditions": "especially at the higher doses where it is most effective; cited from earlier work"}, "[5]": {"target": "T1, M1 acetylcholine receptors (ml receptors in CHO cells) (Homo sapiens, UniProt P11229)", "T1 sequence (P11229 1-460)": "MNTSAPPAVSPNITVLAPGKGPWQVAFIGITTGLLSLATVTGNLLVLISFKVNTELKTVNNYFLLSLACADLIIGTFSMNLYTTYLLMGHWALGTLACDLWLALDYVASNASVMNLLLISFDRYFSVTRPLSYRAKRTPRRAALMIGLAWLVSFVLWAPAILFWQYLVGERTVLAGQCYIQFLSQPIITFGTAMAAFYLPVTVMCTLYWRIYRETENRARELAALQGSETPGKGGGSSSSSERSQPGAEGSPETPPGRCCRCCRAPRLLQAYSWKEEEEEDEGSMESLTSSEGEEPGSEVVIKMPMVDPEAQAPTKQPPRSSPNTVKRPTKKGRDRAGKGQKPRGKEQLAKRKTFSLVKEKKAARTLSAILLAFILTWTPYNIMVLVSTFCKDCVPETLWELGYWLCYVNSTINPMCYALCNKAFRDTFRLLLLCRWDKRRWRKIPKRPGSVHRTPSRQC", "experiment": "cell-based", "conditions": "at 30x Ki (μM), carb = 100%, 1 h, 37° C., read-out: % PI Hydrolysis ml receptors in CHO cells"}}, "note": "Counter-ions that a name gives are not always drawn."}
{"smiles": "C[C@@H]1O[C@H](C[N+](C)(C)C)C[C@H]1O", "note": "[muscarine]", "values": [{"measurement": "ability to enter the CNS", "setting": "[1]", "result": "not able to enter the CNS"}, {"measurement": "activation of ml receptors", "setting": "ml receptors", "result": "able to fully activate ml receptors"}]}
{"smiles": "Cc1nnc(NCCCCN2CC3CCC(CC3)C2)n2cccc12", "note": "[Example 1, [4-(3-Azabicyclo[3.2.2]-3-yl)-butyl]-(1-methylpyrrolo[1,2-d][1,2,4]triazin-4-yl)amine dihydrochloride]", "values": [{"measurement": "Ki", "setting": "ml muscarinic receptor", "result": 310, "unit": "nM"}]}
{"smiles": "COC(=O)C1=CCCN(C)C1", "note": "[arecoline]", "values": [{"measurement": "half-life", "setting": "[2]", "result": "short half-life"}, {"measurement": "improvement in memory", "setting": "[3]", "result": "memory improvement in patients with mild to moderate Alzheimer's disease"}]}
{"smiles": "Nc1c2c(nc3ccccc13)CCCC2", "note": "[tacrine]", "values": [{"measurement": "improvement in memory", "setting": "[3]", "result": "improvement in memory can be shown in patients with mild to moderate Alzheimer's disease"}, {"measurement": "adverse side effects", "setting": "[4]", "result": "adverse side effects especially at the higher doses where it is most effective"}]}
{"smiles": "Cc1nnc(NC2CN3CCC2CC3)n2cccc12", "note": "(stereo not shown) [Example 4, (1-Azabicyclo[2.2.2]oct-3-yl)-1-methylpyrrolo[1,2-d][1,2,4]triazin-4-ylamine dihydrochloride]", "values": [{"measurement": "IC50", "setting": "ml muscarinic receptor", "result": 20200, "unit": "nM"}]}
{"smiles": "C[N+](C)(C)CCOC(N)=O", "note": "[carbachol]", "values": [{"measurement": "ability to enter the CNS", "setting": "[1]", "result": "not able to enter the CNS"}, {"measurement": "activation of ml receptors", "setting": "ml receptors", "result": "able to fully activate ml receptors"}]}
{"smiles": "Cc1nnc(NCCCN2CC3CCC(CC3)C2)n2cccc12", "note": "[Example 2, [4-(3-Azabicyclo[3.2.2.]-3-propyl]-(1-methylpyrrolo[1,2-d][1,2,4]triazin-4-yl)aminedihydrochloride]", "values": [{"measurement": "Ki", "setting": "ml muscarinic receptor", "result": 1390, "unit": "nM"}]}
{"smiles": "Cc1nnc(NCCN2CC3CCC(CC3)C2)n2cccc12", "note": "[Example 3, [4-(3-Azabicyclo[3.2.2]non-3-yl)ethyl]-(1-methylpyrrolo[1,2-d][1,2,4]triazin-4-yl)amine dihydrochloride]", "values": [{"measurement": "Emax", "setting": "[5]", "result": 24, "unit": "%"}, {"measurement": "Ki", "setting": "ml muscarinic receptor", "result": 4450, "unit": "nM"}]}
